Results reported in patent publication US20160220710A1, “COMPOSITIONS AND METHODS FOR DELIVERING PHARMACEUTICAL AGENTS” (THE REGENTS OF THE UNIVERSITY OF MICHIGAN, priority 2015, published 2016).
“Also recorded” adds a separate entry of the source.

Key:
TLR2 = experiment: TNFα ELISA after Pam3 stimulation; type: cell-based, murine; details: Pam3, 2 and 4 μM
Procedure: The murine macrophage cell line RAW 264.7 was purchased from ATCC (Manassas, Va.) and maintained in DMEM (Life Technologies, Carlsbad, Calif.) supplemented with 10% FBS. Soluble CFZ or isolated CLDIs were added at various concentrations in DMEM with 5% FBS to 6-well plates containing 4×10^5 cells/well and incubated (24 h at 37° C. and 5% CO2). Culture supernatants were harvested at 24 h, centrifuged (1500×g for 5 min), and stored (−20° C.) in frozen aliquots prior to analysis. For experiments involving TLR stimulation, cells were washed twice with pre-warmed DPBS to remove extracellular, non-phagocytosed CLDIs or CFZ, and then the cells were serum-starved for 18 h in DMEM. Supernatants were collected from unstimulated cells and cells stimulated with 200 ng/ml Pam3 or 1 μg/ml LPS in DMEM.
The media of cells with or without 6 h TLR stimulation by Pam3 or LPS was harvested, and TNFα and IL-1RA levels were measured by ELISA (Duoset, R&D Systems, Minneapolis, Minn.) in duplicate wells according to the manufacturer's instructions. The cytokine concentrations were expressed as picogram per milligram of cell lysate. Experiments were repeated three times and values are expressed as the mean±SD.

[1] = test system: carrageenan-induced footpad inflammation; experiment: Carrageenan foot edema test; type: in vivo, mice
Procedure: Clofazimine (CFZ, Sigma-Aldrich, C8895) was prepared in sesame oil (Shirakiku, Japan, or Roland, China) and Powdered Lab Diet 5001 (PMI International, Inc., St. Louis, Mo.) and orally administrated to Wild-type (WT) C57BL/6 mice or IL-1RA^−/− (4-5 week old, Jackson Laboratory, Bar Harbor, Me.) for up to 8 weeks ad libitum as previously described (Baik et al., 2013, supra; Baik et al., 2011, supra). Control mice were fed with the same diet without CFZ. The animal protocol was approved by the University of Michigan's Animal Care and Use Committee in accordance with the National Institutes of Health guidelines (UCUCA #PRO0005111).
Foot inflammation in response to carrageenan injection was conducted in CFZ and control mice as previously described (Otterness I G, et al., Moore P F (1988) Immunochemical Techniques Part L: Chemotaxis and Inflammation (Elsevier) doi:10.1016/0076-6879(88)62086-6). In brief, the volume of each hind paw was measured with a caliper before and after the intraplantar injection of 30 μl 2% carrageenan ([…]) in PBS or equal volume of PBS in the contralateral paw. Paw swelling was measured at 4 and 48 h after injection, after which the animals were euthanized by exsanguination while deeply anesthetized with an intraperitoneal injection of ketamine (100 mg/kg) and xylazine (10 mg/kg), and the skin tissues of the plantar region were harvested for cytokine assay (see below).

[2] = Baseline vital signs of 8 wk CFZ-treated mice; type: in vivo
Procedure: Clofazimine (CFZ, Sigma-Aldrich, C8895) was prepared in sesame oil (Shirakiku, Japan, or Roland, China) and Powdered Lab Diet 5001 (PMI International, Inc., St. […] Baik et al., 2011, supra). Control mice were fed with the same diet without CFZ. The animal protocol was approved by the University of Michigan's Animal Care and Use Committee in accordance with the National Institutes of Health guidelines (UCUCA #PRO0005111). The general health status of each PBS/LPS-instilled mice was monitored by measuring body weight and rectal temperature (Microprobe Thermometer, Physitemp Instruments, Clifton, N.J.), and cardiopulmonary function (arterial oxygen saturation, respiratory rate, heart rate and pulse distention) was monitored using MouseOx with a collar clip sensor ([…] Sciences Corp, Oakmont, Pa.) as previously described (Lax S et al., (2014) BMJ open […], et al. (2014) PLoS One 9(6):e98336). In brief, one day before IT instillations (D-1) the hair around the neck of each mouse was removed using Nair (Church & Dwight, Princeton, N.J.) to enable data acquisition using the collar clip sensor. The next day (D 0), immediately prior to the first LPS/PBS dose, and every 24 h afterwards until day 6 (D 6), the body weight, temperature and MouseOx readings were recorded. MouseOx data was acquired by very brief anesthesia of the mouse using 5% isoflurane to facilitate the placement of the collar clip sensor. The mouse was then placed in an enclosed chamber with ambient light and allowed to acclimatize for 5 min at which point the animals had recovered normal activities and physiological readings.

CC(C)/N=c1\cc2n(-c3ccc(Cl)cc3)c3ccccc3nc-2cc1Nc1ccc(Cl)cc1 [CFZ, 3-(p-chloroanilino)-10-(p-chlorophenyl)-2, 10-dihydro-2-isopropyliminophenazine]
Pam3/TLR2-mediated TNFα production (TLR2): Pam3/TLR2-mediated TNFα production was not affected
footpad homogenate IL-1RA levels ([1]; 2 weeks of CFZ treatment, 48 h): reduced
paw swelling vs untreated mice ([1]; 2 weeks of CFZ treatment, 48 h (legend: 4 and 48 h)): only a modest reduction in paw swelling; also recorded: only a minor reduction in swelling at 4 and 48 h
reduction in paw swelling vs untreated mice ([1]; 8 week CFZ-treated, 4 h post-injection): 57%
plasma IL-1RA levels after carrageenan ([1]; 8 week CFZ-treated, 4 h post-injury): rapidly declined at 4 h post-injury
footpad homogenate IL-1RA levels ([1]; 8 week CFZ-treated, 48 h): increased
footpad homogenate IL-1β and TNFα levels ([1]; 8 week CFZ-treated, 48 h): dramatically reduced
paw swelling vs untreated mice ([1]; 8 week CFZ-treated, 48 h post-injection): strikingly reduced swelling
anti-inflammatory effect (paw swelling) ([1]; IL-1RA KO mice, 6 weeks CFZ): greatly diminished in IL-1RA KO mice
paw swelling ([1]; WT mice, 6 weeks CFZ): reduced swelling compared to untreated and injured mice
footpad IL-1β levels ([1]; WT mice, 6 weeks CFZ, injured): significantly reduced
plasma levels of TNFα and IL-1β ([1]; all mice, ELISA detection limit): < 15 pg/mL
arterial oxygen saturation, higher than control diet-treated [2]: 1.5%
behavioral signs of sickness [2]: did not display any behavioral signs of sickness
body temperature [2]: unaffected
breathing rate, lower than control diet-treated [2]: 10.7%
heart rate, lower than control diet-treated [2]: 9.3%
pulse distention, lower than control diet-treated [2]: 16.9%
weight, less than control diet-treated [2]: 6.7%
Arterial O2 Saturation (% ± S.D.) ([2]; n = 16): 99.01 ± 0.24%
Body Temperature (° C. ± S.D) ([2]; n = 16): 35.52 ± 0.76 °C
Breathing rate (brpm ± S.D.) ([2]; n = 16): 154.29 ± 19.43 brpm
Heart rate (bpm ± S.D.) ([2]; n = 16): 573.94 ± 85.28 bpm
Pulse distention (μm ± S.D) ([2]; n = 16): 425.57 ± 52.32 μm
Weight (g ± S.D) ([2]; n = 16): 24.39 ± 1.92 g
